Source: ChEMBL document CHEMBL1201862, “PubChem BioAssay data set” (2004)
Active and inactive are the calls of the source.

What was measured:
Fatty acid synthase [1] = molecular target: T1, Fatty acid synthase (Homo sapiens, UniProt P49327); test: inhibition of human FAS-TE enzyme activity – biochemical, kinetic fluorescence intensity, dose response (AID 624326); type: functional;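 further: rate of fluorescence rise from hydrolysis of a fluorogenic O-methyl fluorescein ester substrate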
Fatty acid synthase [2] = molecular target: T1, Fatty acid synthase; test: inhibition of human FAS-TE enzyme activity – biochemical, endpoint fluorescence intensity, uHTS hits, dose response (AID 624327); type: functional;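 further: fluorescence from hydrolysis of an O-methyl fluorescein acyl ester substrate by the enzyme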
[3] = fluconazole-exposed Candida albicans growth modulators – fluorescence, retest, confirmation (AID 2467); type: functional, cell-based
cells [4] = type: functional, cell-based
[5] = NIH-3T3 fibroblast cytotoxicity, dose response, cytotoxicity control, cell-based, fluorescence, Alamar Blue, secondary assay (AID 2327); type: functional;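 further: NIH-3T3 mouse fibroblasts cultured with fluconazole at 8 µg/mL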
cells [6] = type: functional, cell-based; remark: listed apart in the source
[7] = molecular target: Heat shock protein HSP 90-alpha (Homo sapiens, UniProt P07900); type: functional, organism-based
H4 = test: Luminescence Cell-Based Dose Response HTS to Identify Activators of 5'UTR Stem-Loop Driven Prion Protein mRNA Translation in H4 Neuroglioblastoma Cells. [Related pubchem assays: 1829 (Project Summary), 1814 (Primary HTS)]; type: functional; settings: Homo sapiens
[8] = Luminescence Cell-Based Dose Response HTS to Identify Activators of Luciferase Translation or Activity in H4 […] Cells. [Related pubchem assays: 1829 (Project Summary), 1814 (Primary HTS)]; type: functional
[9] = Luminescence Cell-Based Dose Confirmation HTS to Identify Activators of 5'UTR Stem-Loop Driven Alpha-Synuclein mRNA Translation in H4 Neuroglioblastoma Cells. [Related pubchem assays: 1829 (Project Summary), 1814 (Primary HTS)]; type: functional
[10] = molecular target: T2, High affinity choline transporter 1 (Homo sapiens, UniProt Q9GZV3); test: human choline transporter blockers, potency – cell-based, 5-point CRC, membrane potential dye, dose response (AID 504840); type: functional
T2 sequence (Q9GZV3 whole entry): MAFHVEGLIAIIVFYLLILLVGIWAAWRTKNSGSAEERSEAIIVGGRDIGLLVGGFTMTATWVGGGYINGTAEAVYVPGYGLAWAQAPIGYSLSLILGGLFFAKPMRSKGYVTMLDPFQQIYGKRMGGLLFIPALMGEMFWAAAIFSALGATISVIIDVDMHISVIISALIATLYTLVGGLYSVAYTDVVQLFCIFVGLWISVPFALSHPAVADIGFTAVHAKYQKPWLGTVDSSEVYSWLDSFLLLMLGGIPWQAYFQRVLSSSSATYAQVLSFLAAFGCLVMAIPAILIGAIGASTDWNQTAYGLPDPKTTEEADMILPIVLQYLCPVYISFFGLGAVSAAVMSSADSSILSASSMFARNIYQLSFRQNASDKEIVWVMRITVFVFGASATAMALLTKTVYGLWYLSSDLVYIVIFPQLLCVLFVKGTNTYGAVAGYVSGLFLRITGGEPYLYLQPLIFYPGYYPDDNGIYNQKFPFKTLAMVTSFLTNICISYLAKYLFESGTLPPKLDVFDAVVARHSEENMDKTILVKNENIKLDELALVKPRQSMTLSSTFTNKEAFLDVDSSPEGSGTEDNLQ

[11] = molecular target: T3, Long-chain-fatty-acid--AMP ligase FadD28 (Mycobacterium tuberculosis, UniProt P9WQ59); test: Fluorescence polarization aasay to screen for inhibitors that compete for the binding of FadD28 to a bisubstrate Measured in Biochemical System Using Plate Reader - 2147-01_Inhibitor_Dose_CherryPick_Activity.; type: functional, Mycobacterium tuberculosis H37Rv
T3 sequence (P9WQ59 whole entry): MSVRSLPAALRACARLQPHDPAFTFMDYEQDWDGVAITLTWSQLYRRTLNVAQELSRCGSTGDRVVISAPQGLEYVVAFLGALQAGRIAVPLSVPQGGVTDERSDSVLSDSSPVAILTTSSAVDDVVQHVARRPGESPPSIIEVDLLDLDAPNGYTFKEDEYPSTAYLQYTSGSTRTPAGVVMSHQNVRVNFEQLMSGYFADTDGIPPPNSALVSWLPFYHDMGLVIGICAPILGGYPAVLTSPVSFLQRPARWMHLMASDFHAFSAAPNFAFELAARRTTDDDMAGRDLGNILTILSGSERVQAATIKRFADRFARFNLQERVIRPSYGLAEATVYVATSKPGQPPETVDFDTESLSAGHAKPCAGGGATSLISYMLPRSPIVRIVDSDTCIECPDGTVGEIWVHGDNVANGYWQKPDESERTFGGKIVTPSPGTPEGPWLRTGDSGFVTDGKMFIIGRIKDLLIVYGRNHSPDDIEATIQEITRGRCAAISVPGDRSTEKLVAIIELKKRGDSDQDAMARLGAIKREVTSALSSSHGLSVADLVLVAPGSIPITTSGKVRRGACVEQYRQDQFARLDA

[12] = viability of PTEN-deleted HCT116 cells – cell-based, HCT116 PTEN knockout, dose response (AID 1047); type: functional;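 further: HCT116 colon tumor cells with PTEN knocked out; cells exposed to compound for 60 hours before readout; potency for loss of cell viability measured by luminescence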
[13] = viability of HCT116 lacking mutant beta-catenin – cell-based, human colon tumor, dose response (AID 1045); type: functional;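 further: HCT116 colon tumor cells with beta catenin knocked out; cells exposed to compound for 60 hours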
[14] = molecular target: T4, Ubiquitin-conjugating enzyme E2 N (Homo sapiens, UniProt P61088); type: functional;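 further: Dose-response confirmation in a TR-FRET assay detecting UBC13-driven polyubiquitin chain formation, inhibition measured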
T4 sequence (P61088 whole entry): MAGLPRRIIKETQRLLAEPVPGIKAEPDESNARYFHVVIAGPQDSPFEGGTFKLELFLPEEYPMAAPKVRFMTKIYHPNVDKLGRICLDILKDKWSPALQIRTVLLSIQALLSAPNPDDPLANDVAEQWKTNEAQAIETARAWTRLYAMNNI

[15] = molecular target: T5, Heat shock factor protein 1 (Mus musculus, UniProt P38532); test: decrease of HSF1-responsive luciferase luminescence – cell-based, NIH3T3, dose retest, confirmation (AID 2382); type: functional;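 further: NIH3T3 fibroblasts with HSF1-driven luciferase reporter stressed by proteasome inhibitor MG132; luminescence from HSF1-driven luciferase expression after 8 hours of MG132 stress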
T5 sequence (P38532 whole entry): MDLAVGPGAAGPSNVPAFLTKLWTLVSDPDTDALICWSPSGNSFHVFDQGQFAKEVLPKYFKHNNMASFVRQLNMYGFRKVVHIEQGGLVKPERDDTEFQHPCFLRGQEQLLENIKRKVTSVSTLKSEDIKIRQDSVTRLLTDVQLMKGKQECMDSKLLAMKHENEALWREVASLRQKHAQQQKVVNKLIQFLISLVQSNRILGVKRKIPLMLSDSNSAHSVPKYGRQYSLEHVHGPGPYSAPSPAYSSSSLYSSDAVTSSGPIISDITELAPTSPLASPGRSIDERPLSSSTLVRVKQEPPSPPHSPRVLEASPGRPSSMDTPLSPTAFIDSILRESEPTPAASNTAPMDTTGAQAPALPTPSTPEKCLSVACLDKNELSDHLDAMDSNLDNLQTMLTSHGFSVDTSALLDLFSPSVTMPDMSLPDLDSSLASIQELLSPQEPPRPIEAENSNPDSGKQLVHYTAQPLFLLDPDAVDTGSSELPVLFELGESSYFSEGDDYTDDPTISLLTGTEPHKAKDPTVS

T1 sequence (P49327 whole entry): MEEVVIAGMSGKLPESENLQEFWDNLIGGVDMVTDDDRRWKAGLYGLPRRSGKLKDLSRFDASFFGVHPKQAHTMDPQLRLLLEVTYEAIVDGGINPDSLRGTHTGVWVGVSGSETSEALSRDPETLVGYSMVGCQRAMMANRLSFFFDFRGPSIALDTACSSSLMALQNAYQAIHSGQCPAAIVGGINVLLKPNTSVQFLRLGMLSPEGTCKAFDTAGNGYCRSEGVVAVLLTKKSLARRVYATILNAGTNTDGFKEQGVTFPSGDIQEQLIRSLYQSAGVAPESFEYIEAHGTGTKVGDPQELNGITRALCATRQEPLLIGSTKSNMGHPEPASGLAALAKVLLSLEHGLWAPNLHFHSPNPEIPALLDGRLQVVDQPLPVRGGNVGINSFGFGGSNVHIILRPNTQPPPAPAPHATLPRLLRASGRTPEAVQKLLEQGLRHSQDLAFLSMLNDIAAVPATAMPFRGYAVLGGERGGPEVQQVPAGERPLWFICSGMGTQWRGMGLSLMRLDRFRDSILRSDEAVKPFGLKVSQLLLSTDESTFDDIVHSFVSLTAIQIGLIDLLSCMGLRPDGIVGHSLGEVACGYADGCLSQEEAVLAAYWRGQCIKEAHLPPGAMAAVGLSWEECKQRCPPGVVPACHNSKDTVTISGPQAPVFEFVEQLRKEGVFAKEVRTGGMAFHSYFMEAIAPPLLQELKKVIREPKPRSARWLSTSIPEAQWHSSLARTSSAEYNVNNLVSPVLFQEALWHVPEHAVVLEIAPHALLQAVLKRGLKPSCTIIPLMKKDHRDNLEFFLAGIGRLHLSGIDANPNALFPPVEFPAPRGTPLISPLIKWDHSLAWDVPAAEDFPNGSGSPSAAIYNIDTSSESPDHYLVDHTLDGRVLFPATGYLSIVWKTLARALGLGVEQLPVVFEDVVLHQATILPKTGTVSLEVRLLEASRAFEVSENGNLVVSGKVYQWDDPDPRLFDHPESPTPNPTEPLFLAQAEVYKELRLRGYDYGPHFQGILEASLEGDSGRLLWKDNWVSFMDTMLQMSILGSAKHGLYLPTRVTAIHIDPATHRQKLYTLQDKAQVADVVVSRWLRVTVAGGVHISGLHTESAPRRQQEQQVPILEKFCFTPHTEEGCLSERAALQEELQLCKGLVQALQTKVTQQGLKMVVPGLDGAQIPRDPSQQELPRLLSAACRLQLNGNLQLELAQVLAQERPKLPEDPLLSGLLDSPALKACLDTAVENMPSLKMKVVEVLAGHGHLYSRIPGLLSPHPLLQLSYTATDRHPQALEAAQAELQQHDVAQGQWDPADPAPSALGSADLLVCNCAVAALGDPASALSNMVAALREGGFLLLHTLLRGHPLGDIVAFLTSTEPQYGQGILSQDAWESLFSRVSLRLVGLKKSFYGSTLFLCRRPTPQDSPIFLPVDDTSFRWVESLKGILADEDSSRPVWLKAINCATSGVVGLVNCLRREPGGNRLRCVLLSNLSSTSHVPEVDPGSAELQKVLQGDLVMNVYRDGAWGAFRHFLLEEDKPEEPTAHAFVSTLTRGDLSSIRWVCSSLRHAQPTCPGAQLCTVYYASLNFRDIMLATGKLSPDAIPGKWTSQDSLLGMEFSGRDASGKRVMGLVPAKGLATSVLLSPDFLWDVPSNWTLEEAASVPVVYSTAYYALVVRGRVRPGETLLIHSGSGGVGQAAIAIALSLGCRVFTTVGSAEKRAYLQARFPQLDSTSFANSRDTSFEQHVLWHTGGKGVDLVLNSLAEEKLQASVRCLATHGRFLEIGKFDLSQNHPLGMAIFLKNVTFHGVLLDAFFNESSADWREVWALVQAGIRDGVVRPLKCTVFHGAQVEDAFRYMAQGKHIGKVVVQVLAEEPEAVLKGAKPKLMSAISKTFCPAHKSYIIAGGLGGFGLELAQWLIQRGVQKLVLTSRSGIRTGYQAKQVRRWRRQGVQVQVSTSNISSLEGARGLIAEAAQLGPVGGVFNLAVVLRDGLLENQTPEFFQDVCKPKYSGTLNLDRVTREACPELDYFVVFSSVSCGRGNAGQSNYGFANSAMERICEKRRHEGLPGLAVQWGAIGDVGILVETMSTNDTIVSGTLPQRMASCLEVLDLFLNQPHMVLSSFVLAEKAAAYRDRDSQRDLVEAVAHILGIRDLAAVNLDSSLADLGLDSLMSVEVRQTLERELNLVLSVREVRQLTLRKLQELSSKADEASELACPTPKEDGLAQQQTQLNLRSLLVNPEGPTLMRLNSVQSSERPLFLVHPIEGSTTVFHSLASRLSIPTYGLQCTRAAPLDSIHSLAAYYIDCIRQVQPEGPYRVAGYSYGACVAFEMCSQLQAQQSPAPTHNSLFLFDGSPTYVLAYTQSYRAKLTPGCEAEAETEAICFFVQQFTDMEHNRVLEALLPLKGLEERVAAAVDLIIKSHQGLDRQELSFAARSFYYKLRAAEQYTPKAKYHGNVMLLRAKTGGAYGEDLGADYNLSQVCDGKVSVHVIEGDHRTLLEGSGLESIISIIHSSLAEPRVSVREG

With `Cc1nn(Cc2ccc([N+](=O)[O-])cc2)c(=O)n1-c1cccc(Cl)c1` the IC50 (Fatty acid synthase [1]) was 8.36 µM (active) and the IC50 (Fatty acid synthase [2]) was 5.54 µM (active).

With `Oc1ccc(CN2CCC(Cc3ccccc3)CC2)c2cccnc12` the EC50 [3] was 1.99 µM (active), the EC50 (cells [4]) was 6.9 µM (active) and the EC50 [5] was 22.3 µM (active). The EC50 (cells [6]) was > 350 µM (not active).

In the case of `CC1=C(C(=O)OCc2ccccc2)C(/C=C/c2ccccc2)NC(S)=N1` (stereo not drawn), the AC50 [7] is reported as 4.08 µM (active).

In the case of `Cc1ccc2[nH]c(N3CCN(C)CC3)nc2c1`, the EC50 (H4) is reported as 20 µM (active), the EC50 (cells [4]) is reported as > 350 µM (not active) and the EC50 [8] is reported as 18.7 µM (active). For the same compound, the EC50 (cells [6]) was > 350 µM (not active) and the EC50 [9] was 3.62 µM (active).

For `CCS(=O)(=O)C1=NSC2=NC(=O)/C(=C\c3ccc(OS(=O)(=O)c4ccccc4)c(OC)c3)C(=N)N21`, the IC50 [10] was 13.5 µM (active).

For `O=C(O)c1ccc(-c2nc(-c3ccccc3)c(-c3ccccc3)[nH]2)cc1`, the AC50 [11] was 92.3 µM (active).

For `CC(=O)c1cc(C#N)c(SCCC(C)C)nc1C`, the IC50 (Fatty acid synthase [1]) was 9.54 µM (active) and the IC50 (Fatty acid synthase [2]) was 9.77 µM (active).

In the case of `Cc1cc(C2N=C(N)Nc3nc4ccccc4n32)c(C)n1-c1ccccc1Cl` (stereo not drawn), the EC50 [12] is reported as 30.1 µM (active), the EC50 [13] is reported as 23.4 µM (active) and the IC50 [14] is reported as > 20 µM (inactive).

For `Cn1c(SCC(=O)Nc2ncc(C(F)(F)F)cc2Cl)nnc1-c1ccc(Cl)cc1`, the EC50 [15] was > 195 µM (not active), the IC50 (Fatty acid synthase [1]) was 0.572 µM (active) and the IC50 (Fatty acid synthase [2]) was 0.551 µM (active).

With `COc1ccc([N+](=O)[O-])cc1NC(=O)N(C)Cc1ccco1` the IC50 (Fatty acid synthase [1]) was 21.1 µM (inactive) and the IC50 (Fatty acid synthase [2]) was 17.7 µM (active).

For `COc1ccc(C2=CC3=C(Br)C(=O)C(C)(O)C(=O)C3=CO2)cc1` (stereo not drawn), the AC50 [7] was 2.62 µM (active).

For `Cc1cccc(NC(=O)COC(=O)c2cccc(S(=O)(=O)N3CCCCCC3)c2)c1`, the AC50 [11] was 7.43 µM (active).

With `CCN(CCO)C1CC(=O)N(c2ccccc2C)C1=O` (stereo not drawn) the AC50 [7] was 2.14 µM (active).

With `COC(=O)CSc1nnc(-c2ccc(NS(=O)(=O)c3ccccc3)cc2)o1` the IC50 [10] was 12 µM (active).
